Measured values reported in PubChem BioAssay AID1845219 (Molecular Pharmacology Branch, DTP, NCI, 2023).
Activity calls are given as the source filed them. How the source made its calls: active means viability on the fitted dose curve at most 10% of control; inactive means the rest.

System: SYO-1 tumor spheroids, viability % test/control
Assay: Anticancer human tumor SYO-1 cell line growth inhibition;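 further: spheroids exposed to agents for 7 days before viability read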;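 on viability, T/C: 100% = DMSO vehicle control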
Details: spheroids with HUVEC and MSC; for IC50: curve of first compound; for viability, T/C: stronger effect = lower value
Procedure, shortened: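 Complex spheroids of malignant cells with endothelial cells and mesenchymal stem cells; agents alone or combined, from near clinical Cmax (or 10 microM if unknown) down in half-log steps, 0.25% DMSO final.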

[1] = second compound 30 pM, first compound 0.00949 µM
[2] = second compound 30 pM, first compound 0.03 µM
[3] = second compound 30 pM, first compound 0.0949 µM
[4] = second compound 30 pM, first compound 0.3 µM
[5] = second compound 30 pM, first compound 0.949 µM
[6] = second compound 30 pM, first compound 3 µM
[7] = second compound 94.9 pM, first compound 0.00949 µM
[8] = second compound 94.9 pM, first compound 0.03 µM
[9] = second compound 94.9 pM, first compound 0.0949 µM
[10] = second compound 94.9 pM, first compound 0.3 µM
[11] = second compound 94.9 pM, first compound 0.949 µM
[12] = second compound 94.9 pM, first compound 3 µM
[13] = second compound 0.0003 µM, first compound 0.00949 µM
[14] = second compound 0.0003 µM, first compound 0.03 µM
[15] = second compound 0.0003 µM, first compound 0.0949 µM
[16] = second compound 0.0003 µM, first compound 0.3 µM
[17] = second compound 0.0003 µM, first compound 0.949 µM
[18] = second compound 0.0003 µM, first compound 3 µM
[19] = second compound 0.000949 µM, first compound 0.00949 µM
[20] = second compound 0.000949 µM, first compound 0.03 µM
[21] = second compound 0.000949 µM, first compound 0.0949 µM
[22] = second compound 0.000949 µM, first compound 0.3 µM
[23] = second compound 0.000949 µM, first compound 0.949 µM
[24] = second compound 0.000949 µM, first compound 3 µM
[25] = second compound 0.003 µM, first compound 0.00949 µM
[26] = second compound 0.003 µM, first compound 0.03 µM
[27] = second compound 0.003 µM, first compound 0.0949 µM
[28] = second compound 0.003 µM, first compound 0.3 µM
[29] = second compound 0.003 µM, first compound 0.949 µM
[30] = second compound 0.003 µM, first compound 3 µM

Structure (SMILES)	IC50 (second compound 30 pM) [nM]	IC50 (second compound 94.9 pM) [nM]	IC50 (second compound 0.0003 µM) [nM]	IC50 (second compound 0.000949 µM) [nM]	IC50 (second compound 0.003 µM) [nM]	viability, T/C [3] [%]	viability, T/C [4] [%]	viability, T/C [5] [%]	viability, T/C [6] [%]	viability, T/C [9] [%]	viability, T/C [10] [%]	viability, T/C [11] [%]	viability, T/C [12] [%]	viability, T/C [15] [%]	viability, T/C [16] [%]	viability, T/C [17] [%]	viability, T/C [18] [%]	viability, T/C [21] [%]	viability, T/C [22] [%]	viability, T/C [23] [%]	further results
CNCc1ccc(-c2cc(-c3nc(-c4ccc(S(=O)(=O)C(C)C)cc4)cnc3N)on2)cc1 + COc1cc2c(cc1O)CCNC21CSC2c3c(OC(C)=O)c(C)c4c(c3C(COC1=O)N1C(O)C3Cc5cc(C)c(OC)c(O)c5C(C21)N3C)OCO4	134	49.1	< 9.49	< 9.49	< 9.49	70.5	2.18	0.23	0.08	4.65	1.24	0.12	0.07	2.02	0.82	0.12	0.09	1.43	0.42	0.09	viability, T/C [1]: 100%; viability, T/C [2]: 94.2%; viability, T/C [7]: 98.6%; viability, T/C [8]: 84%; viability, T/C [13]: 11.1%; viability, T/C [14]: 3.94%; viability, T/C [19]: 1.37%; viability, T/C [20]: 1.54%; viability, T/C [24]: 0.1%; viability, T/C [25]: 0.12%; viability, T/C [26]: 0.12%; viability, T/C [27]: 0.1%; viability, T/C [28]: 0.11%; viability, T/C [29]: 0.19%; viability, T/C [30]: 0.18%
Cc1sc2c(c1C)C(c1ccc(Cl)cc1)=NC(CC(=O)Nc1ccc(O)cc1)c1nnc(C)n1-2 (stereo not given) + COc1cc2c(cc1O)CCNC21CSC2c3c(OC(C)=O)c(C)c4c(c3C(COC1=O)N1C(O)C3Cc5cc(C)c(OC)c(O)c5C(C21)N3C)OCO4	52.9	43.2	< 9.49	< 9.49	< 9.49	12.1	0.72	0.4	0.28	8.96	0.68	0.34	0.28	0.68	0.58	0.32	6.38	0.51	0.24	0.06	viability, T/C [1]: 89%; viability, T/C [2]: 86.8%; viability, T/C [7]: 86.1%; viability, T/C [8]: 69%; viability, T/C [13]: 6.25%; viability, T/C [14]: 2.72%; outcome [19]: active; viability, T/C [20]: 0.65%; viability, T/C [24]: 0.12%; viability, T/C [25]: 0.08%; viability, T/C [26]: 0.1%; viability, T/C [27]: 0.09%; viability, T/C [28]: 0.1%; viability, T/C [29]: 0.09%; viability, T/C [30]: 0.21%
Cn1ncnc1[C@H]1c2n[nH]c(=O)c3cc(F)cc(c23)N[C@@H]1c1ccc(F)cc1 + COc1cc2c(cc1O)CCNC21CSC2c3c(OC(C)=O)c(C)c4c(c3C(COC1=O)N1C(O)C3Cc5cc(C)c(OC)c(O)c5C(C21)N3C)OCO4	< 9.49	< 9.49	< 9.49	< 9.49	< 9.49	3.42	2.17	1.14	1.2	2.32	1.61	1.11	1.06	1.38	1.22	1.37	0.93	0.78	0.83	0.68	viability, T/C [1]: 40.6%; viability, T/C [2]: 8.47%; viability, T/C [7]: 9.24%; viability, T/C [8]: 3.72%; viability, T/C [13]: 1.89%; viability, T/C [14]: 1.72%; viability, T/C [19]: 0.99%; viability, T/C [20]: 0.87%; viability, T/C [24]: 0.57%; viability, T/C [25]: 0.13%; viability, T/C [26]: 0.14%; viability, T/C [27]: 0.13%; viability, T/C [28]: 0.14%; viability, T/C [29]: 0.52%; viability, T/C [30]: 0.24%
O=C(c1cc(Cc2n[nH]c(=O)c3ccccc23)ccc1F)N1CCN(C(=O)C2CC2)CC1 + COc1cc2c(cc1O)CCNC21CSC2c3c(OC(C)=O)c(C)c4c(c3C(COC1=O)N1C(O)C3Cc5cc(C)c(OC)c(O)c5C(C21)N3C)OCO4	1590	575	< 94.9	< 94.9	< 94.9	101	92.3	84.7	7.77	85.9	79.7	27.2	4.14	6.93	3.52	2.62	1.83	0.91	0.86	0.95	viability, T/C (second compound 30 pM, first compound 9.49 µM): 2.16%; viability, T/C (second compound 30 pM, first compound 30 µM): 1.89%; viability, T/C (second compound 94.9 pM, first compound 9.49 µM): 1.87%; viability, T/C (second compound 94.9 pM, first compound 30 µM): 1.22%; viability, T/C (second compound 0.0003 µM, first compound 9.49 µM): 1.18%; viability, T/C (second compound 0.0003 µM, first compound 30 µM): 1.45%; viability, T/C [24]: 0.68%; viability, T/C (second compound 0.000949 µM, first compound 9.49 µM): 0.61%; viability, T/C (second compound 0.000949 µM, first compound 30 µM): 0.39%; viability, T/C [27]: 3.53%; viability, T/C [28]: 0.25%; viability, T/C [29]: 0.21%; viability, T/C [30]: 0.22%; viability, T/C (second compound 0.003 µM, first compound 9.49 µM): 0.24%; viability, T/C (second compound 0.003 µM, first compound 30 µM): 0.31%
